Earlier results in US20040228830A1 (Collegium Pharmaceutical, Inc., priority 2003, published 2004).

Assays:
[1] = 75-100 mg/day twice daily for 8 weeks, elderly patients with depression
[2] = intravenous, 10 patients
uptake of dopamine = uptake of dopamine (Homo sapiens, UniProt Q01959)
[3] = tested on: beta adrenoceptors in rat cortex; conditions: after chronic administration
[4] = metabolism in the liver
[5] = 200 mg/day
[6] = after one week of dose escalation
[7] = human, in vivo

Sequence of uptake of dopamine (Q01959 whole entry): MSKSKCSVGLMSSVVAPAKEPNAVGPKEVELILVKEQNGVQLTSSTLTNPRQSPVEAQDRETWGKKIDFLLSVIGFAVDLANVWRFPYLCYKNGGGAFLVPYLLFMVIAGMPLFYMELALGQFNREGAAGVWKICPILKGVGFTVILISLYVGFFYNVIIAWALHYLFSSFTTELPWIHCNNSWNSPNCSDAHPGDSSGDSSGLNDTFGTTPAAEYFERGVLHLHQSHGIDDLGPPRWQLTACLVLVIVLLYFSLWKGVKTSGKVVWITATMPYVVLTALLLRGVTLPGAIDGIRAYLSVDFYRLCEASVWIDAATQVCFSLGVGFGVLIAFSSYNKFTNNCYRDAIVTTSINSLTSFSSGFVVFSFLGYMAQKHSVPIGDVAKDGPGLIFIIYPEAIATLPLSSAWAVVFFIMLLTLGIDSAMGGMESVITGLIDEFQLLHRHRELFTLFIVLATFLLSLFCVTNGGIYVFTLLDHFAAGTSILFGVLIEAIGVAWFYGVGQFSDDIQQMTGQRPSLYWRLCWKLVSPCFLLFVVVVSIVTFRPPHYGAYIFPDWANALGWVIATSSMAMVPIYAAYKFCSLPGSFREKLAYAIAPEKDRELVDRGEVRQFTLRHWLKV

CCN(CC)C(=O)C1(c2ccccc2)CC1CN (stereo not shown) [milnacipran, Milnacipran]
only adverse event reported more frequently for milnacipran recipients than for imipramine recipients [1]: nausea | patients reporting transient nausea [2]: five | effect on the uptake of dopamine (uptake of dopamine): does not affect | effect on the number of beta adrenoceptors in rat cortex [3]: does not affect | number of chemically identified metabolites [4]: ten | antidepressant efficacy versus lower doses [5]: superior to the lower doses | most common dose-related side effect reported by patients (four weeks dose escalation): nausea | pain improvement (twice-a-day administration of immediate release formulation, fibromyalgia): statistically superior to that of placebo treatment | most commonly reported reason for discontinuation of treatment because of adverse effects [6]: nausea and vomiting | toxicity in humans [7]: non-toxic
